“And” between values parts separate entries of the source, which are not always exact repeats. Equal values may be shown once. Numbers after ± are expanded uncertainties.
O=C(C(F)(F)C(F)(F)F)C(F)(C(F)(F)F)C(F)(F)F [dodecafluoro-2-methylpentan-3-one]
Details | thermal conductivity
272.59 K, 5172 kPa, Liquid, transient hot wire | 0.06413 ± 0.0013 W/m/K
272.59 K, 11144 kPa, Liquid, transient hot wire | 0.06607 ± 0.0014 W/m/K
272.63 K, 49567 kPa, Liquid, transient hot wire | 0.07698 ± 0.0016 W/m/K
272.63 K, 49576 kPa, Liquid, transient hot wire | 0.07734 ± 0.0016 W/m/K
272.66 K, 412 kPa, Liquid, transient hot wire | 0.06211 ± 0.0013 W/m/K
272.66 K, 419 kPa, Liquid, transient hot wire | 0.06231 ± 0.0013 W/m/K
272.66 K, 59545 kPa, Liquid, transient hot wire | 0.08002 ± 0.0016 W/m/K
272.67 K, 59542 kPa, Liquid, transient hot wire | 0.0797 ± 0.0016 W/m/K
272.71 K, 68218 kPa, Liquid, transient hot wire | 0.08167 ± 0.0017 W/m/K
272.71 K, 68236 kPa, Liquid, transient hot wire | 0.08151 ± 0.0017 W/m/K
273.05 K, 32241 kPa, Liquid, transient hot wire | 0.07208 ± 0.0015 W/m/K
273.05 K, 32245 kPa, Liquid, transient hot wire | 0.0724 ± 0.0015 W/m/K
273.05 K, 40384 kPa, Liquid, transient hot wire | 0.07454 ± 0.0015 W/m/K
273.05 K, 40385 kPa, Liquid, transient hot wire | 0.07459 ± 0.0015 W/m/K
273.05 K, 46114 kPa, Liquid, transient hot wire | 0.07568 ± 0.0016 W/m/K
273.06 K, 24365 kPa, Liquid, transient hot wire | 0.07006 ± 0.0014 W/m/K
273.06 K, 24371 kPa, Liquid, transient hot wire | 0.0701 ± 0.0014 W/m/K
273.07 K, 5155 kPa, Liquid, transient hot wire | 0.06386 ± 0.0013 W/m/K
273.07 K, 46114 kPa, Liquid, transient hot wire | 0.07563 ± 0.0015 W/m/K
273.08 K, 5150 kPa, Liquid, transient hot wire | 0.06384 ± 0.0013 W/m/K
273.1 K, 49569 kPa, Liquid, transient hot wire | 0.07538 ± 0.0015 W/m/K
273.1 K, 49574 kPa, Liquid, transient hot wire | 0.07648 ± 0.0016 W/m/K
273.11 K, 59541 kPa, Liquid, transient hot wire | 0.07959 ± 0.0016 W/m/K
273.12 K, 59533 kPa, Liquid, transient hot wire | 0.07966 ± 0.0016 W/m/K
273.14 K, 68200 kPa, Liquid, transient hot wire | 0.0807 ± 0.0017 W/m/K
273.15 K, 404 kPa, Liquid, transient hot wire | 0.06203 ± 0.0013 W/m/K
273.15 K, 68218 kPa, Liquid, transient hot wire | 0.08063 ± 0.0017 W/m/K
273.16 K, 411 kPa, Liquid, transient hot wire | 0.06212 ± 0.0013 W/m/K
273.17 K, 17550 kPa, Liquid, transient hot wire | 0.06792 ± 0.0014 W/m/K
273.17 K, 17567 kPa, Liquid, transient hot wire | 0.06791 ± 0.0014 W/m/K
273.18 K, 11149 kPa, Liquid, transient hot wire | 0.066 ± 0.0014 W/m/K
273.18 K, 11163 kPa, Liquid, transient hot wire | 0.06608 ± 0.0014 W/m/K
273.61 K, 5151 kPa, Liquid, transient hot wire | 0.06408 ± 0.0013 W/m/K
273.61 K, 5162 kPa, Liquid, transient hot wire | 0.06401 ± 0.0013 W/m/K
273.61 K, 59517 kPa, Liquid, transient hot wire | 0.0783 ± 0.0016 W/m/K
273.62 K, 49564 kPa, Liquid, transient hot wire | 0.07642 ± 0.0016 W/m/K
273.62 K, 49566 kPa, Liquid, transient hot wire | 0.07674 ± 0.0016 W/m/K
273.62 K, 59531 kPa, Liquid, transient hot wire | 0.07779 ± 0.0016 W/m/K
273.65 K, 40387 kPa, Liquid, transient hot wire | 0.07442 ± 0.0015 W/m/K
273.65 K, 40395 kPa, Liquid, transient hot wire | 0.07429 ± 0.0015 W/m/K
273.65 K, 46116 kPa, Liquid, transient hot wire | 0.0758 ± 0.0016 W/m/K
273.65 K, 68183 kPa, Liquid, transient hot wire | 0.08044 ± 0.0016 W/m/K
273.65 K, 68193 kPa, Liquid, transient hot wire | 0.08038 ± 0.0016 W/m/K
273.66 K, 46113 kPa, Liquid, transient hot wire | 0.07572 ± 0.0016 W/m/K
273.67 K, 32245 kPa, Liquid, transient hot wire | 0.07209 ± 0.0015 W/m/K
273.67 K, 32247 kPa, Liquid, transient hot wire | 0.07216 ± 0.0015 W/m/K
273.7 K, 424 kPa, Liquid, transient hot wire | 0.0621 ± 0.0013 W/m/K
273.7 K, 24366 kPa, Liquid, transient hot wire | 0.07016 ± 0.0014 W/m/K
273.7 K, 24370 kPa, Liquid, transient hot wire | 0.07021 ± 0.0014 W/m/K
273.71 K, 432 kPa, Liquid, transient hot wire | 0.06209 ± 0.0013 W/m/K
273.81 K, 17553 kPa, Liquid, transient hot wire | 0.06799 ± 0.0014 W/m/K
273.82 K, 17545 kPa, Liquid, transient hot wire | 0.06795 ± 0.0014 W/m/K
273.85 K, 11147 kPa, Liquid, transient hot wire | 0.06585 ± 0.0014 W/m/K
273.86 K, 11155 kPa, Liquid, transient hot wire | 0.06592 ± 0.0014 W/m/K
274.19 K, 59501 kPa, Liquid, transient hot wire | 0.07896 ± 0.0016 W/m/K
274.2 K, 59504 kPa, Liquid, transient hot wire | 0.07856 ± 0.0016 W/m/K
274.21 K, 49565 kPa, Liquid, transient hot wire | 0.07644 ± 0.0016 W/m/K
274.21 K, 49570 kPa, Liquid, transient hot wire | 0.07662 ± 0.0016 W/m/K
274.22 K, 68163 kPa, Liquid, transient hot wire | 0.08055 ± 0.0016 W/m/K
274.22 K, 68173 kPa, Liquid, transient hot wire | 0.08038 ± 0.0016 W/m/K
274.29 K, 46110 kPa, Liquid, transient hot wire | 0.07571 ± 0.0016 W/m/K
274.3 K, 46107 kPa, Liquid, transient hot wire | 0.07575 ± 0.0016 W/m/K
274.31 K, 40378 kPa, Liquid, transient hot wire | 0.07418 ± 0.0015 W/m/K
274.31 K, 40391 kPa, Liquid, transient hot wire | 0.07426 ± 0.0015 W/m/K
274.35 K, 32242 kPa, Liquid, transient hot wire | 0.0723 ± 0.0015 W/m/K
274.35 K, 32249 kPa, Liquid, transient hot wire | 0.0721 ± 0.0015 W/m/K
274.39 K, 24361 kPa, Liquid, transient hot wire | 0.07 ± 0.0014 W/m/K
274.4 K, 24354 kPa, Liquid, transient hot wire | 0.06999 ± 0.0014 W/m/K
274.53 K, 17544 kPa, Liquid, transient hot wire | 0.068 ± 0.0014 W/m/K
274.54 K, 17533 kPa, Liquid, transient hot wire | 0.06799 ± 0.0014 W/m/K
274.59 K, 11155 kPa, Liquid, transient hot wire | 0.06582 ± 0.0014 W/m/K
274.6 K, 11134 kPa, Liquid, transient hot wire | 0.06585 ± 0.0014 W/m/K
274.82 K, 59491 kPa, Liquid, transient hot wire | 0.07869 ± 0.0016 W/m/K
274.82 K, 59496 kPa, Liquid, transient hot wire | 0.07855 ± 0.0016 W/m/K
274.83 K, 68150 kPa, Liquid, transient hot wire | 0.0803 ± 0.0016 W/m/K
274.83 K, 68153 kPa, Liquid, transient hot wire | 0.08033 ± 0.0016 W/m/K
274.86 K, 49566 kPa, Liquid, transient hot wire | 0.0765 ± 0.0016 W/m/K
274.86 K, 49571 kPa, Liquid, transient hot wire | 0.07653 ± 0.0016 W/m/K
300.59 K, 40 kPa, Gas, hot wire | 0.01173 ± 0.00055 W/m/K
300.6 K, 35 kPa, Gas, hot wire | 0.01177 ± 0.00059 W/m/K
300.6 K, 40 kPa, Gas, hot wire | 0.01173 ± 0.00055 W/m/K
300.61 K, 35 kPa, Gas, hot wire | 0.01163 ± 0.00066 W/m/K
300.62 K, 27 kPa, Gas, hot wire | 0.01161 ± 0.00055 W/m/K and 0.01166 ± 0.00055 W/m/K
300.8 K, 40 kPa, Gas, hot wire | 0.01173 ± 0.00055 W/m/K and 0.01174 ± 0.00055 W/m/K
